The text below walks through data of PubChem BioAssay AID1918932 (Molecular Pharmacology Branch, DTP, NCI, 2023).

Where “and” joins values, the source holds several entries; their conditions need not be identical. Equal values may be shown once.

For the test, the system named is 171881-019-R-J1-PDC complex spheroid viability. The test is described as follows: Anticancer human tumor 171881-019-R-J1-PDC patient-derived invasive breast carcinoma cell line growth inhibition. The settings on record: for viability, T/C: stronger effect = lower value. An outline of the steps:
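Multicellular complex spheroids of tumor cells with human endothelial cells (HUVEC) and mesenchymal stem cells; the LSD1 inhibitor iadademstat was combined with standard-of-care or investigational agents. Top concentration at or near clinical Cmax, half-log dilutions; final DMSO ≤0.25%.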

Setting [1] is: curve of first compound, second compound 0.1 µM.
The mark [2] stands for this setting: curve of first compound, second compound 0.316 µM.
Setting [3] is: curve of first compound, second compound 1 µM.
The mark [4] stands for this setting: curve of first compound, second compound 3.16 µM.
Where [5] appears, read: curve of first compound, second compound 10 µM.
Setting [6] is: second compound 0.1 µM, first compound 0.00949 µM.
Where [7] appears, read: second compound 0.1 µM, first compound 0.03 µM.
The mark [8] stands for this setting: second compound 0.1 µM, first compound 0.0949 µM.
[9] abbreviates: second compound 0.1 µM, first compound 0.3 µM.
Setting [10] is: second compound 0.1 µM, first compound 0.949 µM.
The mark [11] stands for this setting: second compound 0.1 µM, first compound 3 µM.
Where [12] appears, read: second compound 0.316 µM, first compound 0.00949 µM.
The mark [13] stands for this setting: second compound 0.316 µM, first compound 0.03 µM.
The mark [14] stands for this setting: second compound 0.316 µM, first compound 0.0949 µM.
Where [15] appears, read: second compound 0.316 µM, first compound 0.3 µM.
The mark [16] stands for this setting: second compound 0.316 µM, first compound 0.949 µM.
Where [17] appears, read: second compound 0.316 µM, first compound 3 µM.
Setting [18] is: second compound 1 µM, first compound 0.00949 µM.
Where [19] appears, read: second compound 1 µM, first compound 0.03 µM.
Setting [20] is: second compound 1 µM, first compound 0.0949 µM.
Where [21] appears, read: second compound 1 µM, first compound 0.3 µM.
Setting [22] is: second compound 1 µM, first compound 0.949 µM.
Setting [23] is: second compound 1 µM, first compound 3 µM.
Where [24] appears, read: second compound 3.16 µM, first compound 0.00949 µM.
Setting [25] is: second compound 3.16 µM, first compound 0.03 µM.
Where [26] appears, read: second compound 3.16 µM, first compound 0.0949 µM.
Setting [27] is: second compound 3.16 µM, first compound 0.3 µM.
The mark [28] stands for this setting: second compound 3.16 µM, first compound 0.949 µM.
Where [29] appears, read: second compound 3.16 µM, first compound 3 µM.
Setting [30] is: second compound 10 µM, first compound 0.00949 µM.
[31] abbreviates: second compound 10 µM, first compound 0.03 µM.
[32] abbreviates: second compound 10 µM, first compound 0.0949 µM.
Setting [33] is: second compound 10 µM, first compound 0.3 µM.
Setting [34] is: second compound 10 µM, first compound 0.949 µM.
Setting [35] is: second compound 10 µM, first compound 3 µM.

In general, IC50 refers to the concentration needed to halve the response being measured. As a reminder, the viability, T/C is the result in the treated group divided by that in the control group, in per cent.
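Note: spheroids exposed to agents for 7 days after 3 days growth.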

As to `COc1ccc([C@@H](O)c2cc(-c3ncnc4cc(N5CCOCC5)ccc34)c(F)cc2Cl)nn1` + NC1CC1c1ccc(-c2cccc(O)c2)cc1, the IC50 by setting is: under setting [1], 0.624 µM; under setting [2], 0.672 µM; under setting [3], 0.753 µM; under setting [4], 0.804 µM; under setting [5], 0.606 µM. Further, the viability, T/C runs as follows: (second compound 0.1 µM, first compound 0.0316 µM) 100%; (second compound 0.1 µM, first compound 0.1 µM) 99.9%; (second compound 0.1 µM, first compound 0.316 µM) 78.9%; (second compound 0.1 µM, first compound 1 µM) 30.5%; (second compound 0.1 µM, first compound 3.16 µM) 7.18%; (second compound 0.1 µM, first compound 10 µM) 11%. For the same molecule, the viability, T/C was 103% (second compound 0.316 µM, first compound 0.0316 µM); 100% (second compound 0.316 µM, first compound 0.1 µM); 81.2% (second compound 0.316 µM, first compound 0.316 µM); 34.4% (second compound 0.316 µM, first compound 1 µM); 8.07% (second compound 0.316 µM, first compound 3.16 µM); 11% (second compound 0.316 µM, first compound 10 µM). In addition, the viability, T/C (second compound 1 µM, first compound 0.0316 µM) was 108%; the viability, T/C (second compound 1 µM, first compound 0.1 µM) was 107%; the viability, T/C (second compound 1 µM, first compound 0.316 µM) was 85.9%; the viability, T/C (second compound 1 µM, first compound 1 µM) was 39.2%; the viability, T/C (second compound 1 µM, first compound 3.16 µM) is 8.76%; the viability, T/C (second compound 1 µM, first compound 10 µM) was 9.94%. The viability, T/C runs as follows: (second compound 3.16 µM, first compound 0.0316 µM) 104%; (second compound 3.16 µM, first compound 0.1 µM) 106%; (second compound 3.16 µM, first compound 0.316 µM) 92.1%; (second compound 3.16 µM, first compound 1 µM) 40.8%; (second compound 3.16 µM, first compound 3.16 µM) 7.82%; (second compound 3.16 µM, first compound 10 µM) 10.7%. In addition, the viability, T/C is 84.8% (second compound 10 µM, first compound 0.0316 µM); 88.6% (second compound 10 µM, first compound 0.1 µM); 75.2% (second compound 10 µM, first compound 0.316 µM); 30.6% (second compound 10 µM, first compound 1 µM); 8.18% (second compound 10 µM, first compound 3.16 µM); 9.78% (second compound 10 µM, first compound 10 µM).

For the molecule `O=C(C=Cc1cccc(S(=O)(=O)Nc2ccccc2)c1)NO` + NC1CC1c1ccc(-c2cccc(O)c2)cc1, the IC50 came to 0.382 µM under setting [1]; 0.404 µM under setting [2]; 0.419 µM under setting [3]; 0.389 µM under setting [4]; 0.309 µM under setting [5]. In addition, the viability, T/C under setting [6] is 99.8%; the viability, T/C under setting [7] was 104%; the viability, T/C under setting [8] is 102%; the viability, T/C under setting [9] is 63.1%; the viability, T/C under setting [10] is 1.03%; the viability, T/C under setting [11] was 0.11%. Besides, the viability, T/C runs as follows: under setting [12], 100%; under setting [13], 98.5%; under setting [14], 100%; under setting [15], 67%; under setting [16], 1.15%; under setting [17], 0.13%. The viability, T/C was 104% under setting [18]; 103% under setting [19]; 103% under setting [20]; 69.9% under setting [21]; 1.32% under setting [22]; 0.23% under setting [23]. The viability, T/C under setting [24] was 92%; the viability, T/C under setting [25] is 89.5%; the viability, T/C under setting [26] was 97.2%; the viability, T/C under setting [27] was 64.3%; the viability, T/C under setting [28] is 1.09%; the viability, T/C under setting [29] was 0.11%. Moreover, the viability, T/C is, setting by setting: under setting [30], 77%; under setting [31], 73.5%; under setting [32], 85.6%; under setting [33], 51.4%; under setting [34], 0.76%; under setting [35], 0.14%.

On to `CCN(c1cc(-c2ccc(CN3CCOCC3)cc2)cc(C(=O)NCc2c(C)cc(C)[nH]c2=O)c1C)C1CCOCC1` + NC1CC1c1ccc(-c2cccc(O)c2)cc1, for which the IC50 was found to be 2.13 µM under setting [1]; 2.05 µM under setting [2]; 1.84 µM under setting [3]; 1.51 µM under setting [4]; 1.18 µM under setting [5]. Besides, the viability, T/C by setting is: under setting [6], 102%; under setting [7], 109%; under setting [8], 102%; under setting [9], 84.8%; under setting [10], 68%; under setting [11], 42.7%. The viability, T/C is, setting by setting: under setting [12], 102%; under setting [13], 107%; under setting [14], 105%; under setting [15], 88.4%; under setting [16], 66.8%; under setting [17], 42%. For the same molecule, the viability, T/C is 99.3% under setting [18]; 108% under setting [19]; 96.6% under setting [20]; 74.9% under setting [21]; 61% under setting [22]; 43% under setting [23]. Besides, the viability, T/C is, setting by setting: under setting [24], 96%; under setting [25], 91.7%; under setting [26], 90.6%; under setting [27], 75.2%; under setting [28], 59%; under setting [29], 37.6%. Further, the viability, T/C under setting [30] was 78.5%; the viability, T/C under setting [31] was 77.4%; the viability, T/C under setting [32] is 82.2%; the viability, T/C under setting [33] is 60.2%; the viability, T/C under setting [34] was 55.7%; the viability, T/C under setting [35] is 38.8%.

`CC(C)CC(NC(=O)C(Cc1ccccc1)NC(=O)c1cnccn1)B(O)O` (stereo unspecified): the viability, T/C (compound 0.000316 µM) is 9.71% and 22.8%; the viability, T/C (compound 0.001 µM) was 1.12% and 20.1%; the viability, T/C (compound 0.00316 µM) was 0.41% and 17.8%; the viability, T/C (compound 0.01 µM) is 0.25% and 10.1%; the viability, T/C (compound 0.0316 µM) is 0.24% and 12%; the viability, T/C (compound 0.1 µM) is 0.17% and 6.28%. The IC50 (curve of compound) is < 0.000316 µM.

With `O=C(c1cc(Cc2n[nH]c(=O)c3ccccc23)ccc1F)N1CCN(C(=O)C2CC2)CC1`, the viability, T/C is 90.8% and 96.5% (compound 0.0316 µM); 94.5% and 103% (compound 0.1 µM); 83.5% and 95.9% (compound 0.316 µM); 91.6% and 83% (compound 1 µM); 82.8% and 50.5% (compound 3.16 µM); 101% and 21.5% (compound 10 µM). The half-inhibitory concentration (IC50) (curve of compound) is > 10 µM and 3.2 µM.

With `Nc1ccccc1NC(=O)c1ccc(CNC(=O)OCc2cccnc2)cc1`, the viability, T/C (compound 0.00949 µM) is 96.1% and 95.3%; the viability, T/C (compound 0.03 µM) was 102% and 98.5%; the viability, T/C (compound 0.0949 µM) is 135% and 108%; the viability, T/C (compound 0.3 µM) was 45.6% and 92.6%; the viability, T/C (compound 0.949 µM) is 2.72% and 9.58%; the viability, T/C (compound 3 µM) was 0.41% and 0.94%. For the same molecule, the IC50 (curve of compound) is 0.278 µM and 0.542 µM.
